Test: molar heat capacity at constant pressure
Details: 101.33 kPa, Crystal, Small sample (50 mg) DSC

[F-].[F-].[F-].[F-].[Li+].[Lu+3] [lithium lutetium fluoride]
Details | molar heat capacity at constant pressure [J/K/mol]
647.3 K | 155.71
649.7 K | 156.15
652.2 K | 156.38
654.7 K | 156.1
657.1 K | 156.18
659.6 K | 156.74
662.1 K | 156.82
664.5 K | 156.91
667 K | 157.05
669.5 K | 157.26
671.9 K | 157.26
674.4 K | 157.34
676.9 K | 157.51
679.3 K | 157.82
681.8 K | 157.78
684.3 K | 157.7
686.7 K | 157.84
689.2 K | 158.11
691.6 K | 158.21
694.1 K | 158.28
696.6 K | 158.3
699 K | 158.66
701.5 K | 158.32
704 K | 158.88
706.4 K | 158.86
708.9 K | 158.73
711.3 K | 159.06
713.8 K | 159.12
716.3 K | 159.23
718.7 K | 159.5
721.2 K | 159.17
723.7 K | 159.42
726.1 K | 159.52
728.6 K | 159.81
731 K | 159.67
733.5 K | 159.82
736 K | 160.19
738.4 K | 160.21
740.9 K | 159.84
743.4 K | 160.74
745.8 K | 160.23
748.3 K | 160.71
750.8 K | 160.51
753.2 K | 160.71
755.7 K | 160.47
758.1 K | 161.09
760.6 K | 160.99
763.1 K | 161.08
765.5 K | 161.21
768 K | 161.19
770.5 K | 161.33
773 K | 161.68
775.4 K | 161.44
777.9 K | 161.42
780.4 K | 161.69
782.8 K | 161.76
785.3 K | 161.68
787.8 K | 161.79
790.2 K | 161.81
792.7 K | 161.94
795.2 K | 162.55
797.7 K | 162.37
800.1 K | 162.27
802.6 K | 162.36
805.1 K | 162.55
807.5 K | 162.68
810 K | 162.67
812.5 K | 162.66
815 K | 162.95
817.4 K | 162.84
819.9 K | 162.94
822.4 K | 163.1
824.9 K | 163.41
827.3 K | 163.19
829.8 K | 163.53
832.3 K | 163.61
834.8 K | 163.59
837.3 K | 163.47
839.8 K | 163.45
842.2 K | 163.53
844.7 K | 163.85
847.2 K | 163.88
849.6 K | 163.86
852.1 K | 163.85
854.6 K | 163.88
857.1 K | 163.9
859.6 K | 164.11
862.1 K | 164.25
864.6 K | 164.33
867 K | 164.11
869.5 K | 164.63
872 K | 164.68
874.5 K | 164.55
877 K | 164.67
879.5 K | 164.73
881.9 K | 165.01
884.4 K | 164.63
886.9 K | 165.15
889.4 K | 164.71
891.9 K | 164.79
894.4 K | 164.9
896.9 K | 165
899.4 K | 165.27
901.8 K | 165.61
904.3 K | 165.53
906.8 K | 165.9
909.3 K | 165.68
911.8 K | 166.05
914.3 K | 165.94
916.8 K | 165.71
919.3 K | 165.93
921.7 K | 165.89
924.2 K | 166.2
926.7 K | 166.37
929.2 K | 166.53
931.7 K | 166.66
934.2 K | 166.07
936.7 K | 166.68
939.2 K | 167.32
941.7 K | 167.41
944.2 K | 167.52
946.7 K | 167.43
949.2 K | 167.53
951.7 K | 167.51

From the NIST ThermoML archive (doi:10.1016/j.tca.2012.11.015)
